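Cultured in 96-well plates, cells were exposed to test compound for 48 hours across five concentrations. GI50 is the concentration that inhibits growth by half. TGI: concentration producing complete growth inhibition.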
Columns and labels:
Test in all cases: NCI anticancer screen, dose series, 48 h
DLD-1 colon = test system: DLD-1 colon
M14 melanoma = test system: M14 melanoma
M19-MEL melanoma = test system: M19-MEL melanoma
NCI-H460 lung = test system: NCI-H460 lung
RXF 393 renal = test system: RXF 393 renal
SF-539 CNS = test system: SF-539 CNS
SK-MEL-28 melanoma = test system: SK-MEL-28 melanoma
UO-31 renal = test system: UO-31 renal
MDA-MB-231 breast = test system: MDA-MB-231 breast
NCI/ADR-RES ovarian = test system: NCI/ADR-RES ovarian

Compound	TGI (DLD-1 colon)	TGI (M14 melanoma)	TGI (M19-MEL melanoma)	TGI (NCI-H460 lung)	TGI (RXF 393 renal)	TGI (SF-539 CNS)	TGI (SK-MEL-28 melanoma)	TGI (UO-31 renal)	GI50 (DLD-1 colon)	GI50 (M14 melanoma)	GI50 (NCI-H460 lung)	GI50 (SF-539 CNS)	GI50 (SK-MEL-28 melanoma)	GI50 (UO-31 renal)	GI50 (MDA-MB-231 breast)	TGI (MDA-MB-231 breast)	GI50 (NCI/ADR-RES ovarian)	TGI (NCI/ADR-RES ovarian)	GI50 (RXF 393 renal)
CC1CCC2(NC1)OC1CC3[C@@H]4CC=C5C=CCC[C@]5(C)C4CC[C@]3(C)C1C2C (stereo partly specified)	58.2 µM	50.9 µM	> 100 µM	34.1 µM	> 100 µM	43.2 µM	30 µM	68.7 µM											
CC(=O)O[C@H]1CC[C@@]2(C)C(CC[C@]3(C)C2CC[C@]2(C)Oc4c(C)cc(O)cc4C[C@@H]23)C1(C)C (stereo partly specified)	27.1 µM	27.5 µM	25.8 µM	16.5 µM	7.09 µM		22.9 µM	14.3 µM											
OCCN(CCO)c1cccc(N(CCO)CCO)c1	> 100 µM	> 100 µM	> 100 µM	> 100 µM	> 100 µM		> 100 µM	92.2 µM											
Cc1cc2c(cc1C)[n+](=O)c(C(=O)/C=C/c1ccc(Cl)cc1)c(C)n2[O-]	70.9 µM	54.1 µM	> 100 µM	62.7 µM		47.3 µM	59.4 µM	39.6 µM											
N#CCCN(CCC#N)c1ccc(/C=C2\N=C(COc3ccc(Cl)cc3Cl)OC2=O)cc1	> 100 µM	> 100 µM	> 100 µM	> 100 µM		> 100 µM	> 100 µM	> 100 µM											
O=c1[nH]c(-c2ccccc2)nc2ccc(Cl)cc12			> 100 µM		> 100 µM	> 100 µM	> 100 µM	> 100 µM											
O=C(CC1(O)C(=O)Nc2ccc(Br)cc21)c1ccc(Cl)cc1 (stereo unspecified)	> 100 µM	> 100 µM		> 100 µM	> 100 µM	> 100 µM	> 100 µM	> 100 µM											
O=S(=O)([O-])[O-].[Cl-].[NH2-].[NH2-].[NH2-].[NH2-].[Ru+3].c1ccc(-c2cccnc2)cc1	> 100 µM	> 100 µM		> 100 µM		> 100 µM	> 100 µM	> 100 µM	> 100 µM	> 100 µM	> 100 µM	> 100 µM	> 100 µM	> 100 µM					
CC1=C(C(=O)Nc2ccc3[nH]ncc3c2)C(c2ccc(F)cc2)NC(=O)N1 (stereo unspecified)		> 25 µM		> 25 µM	> 25 µM	> 25 µM	> 25 µM	> 25 µM		> 25 µM	> 25 µM	> 25 µM	> 25 µM	> 17.5 µM	> 25 µM	> 25 µM	> 25 µM	> 25 µM	> 14.6 µM
N#Cc1c2ccccc2c2n1-c1ccccc1OC(c1ccccc1)C2=O (stereo unspecified)		17.4 µM		18.8 µM	9.55 µM	16.8 µM	27.5 µM	12 µM		3.89 µM	3.69 µM	4.29 µM	8.67 µM	3.19 µM	2.78 µM	8.99 µM	3.2 µM	12 µM	3.15 µM
COc1cc(C(=O)/C=C/c2c(-c3ccc(F)cc3)nc3sc(C)cn23)cc(OC)c1OC		> 100 µM		> 100 µM	> 100 µM	> 100 µM	> 100 µM	> 100 µM		5.12 µM	3.87 µM	6.23 µM	7.07 µM	2.95 µM	5.38 µM	> 100 µM	2.63 µM	15.8 µM	5.75 µM
N#Cc1cccc(C(=O)c2cnn(-c3ccc(F)cc3)c2N)c1		> 25 µM		> 25 µM	> 25 µM	> 25 µM	> 25 µM	> 25 µM		> 25 µM	> 25 µM	> 25 µM	> 25 µM	> 25 µM	> 25 µM	> 25 µM	> 25 µM	> 25 µM	> 23.4 µM
O=[N+]([O-])c1cc(O)c(O)cc1-c1cn2ccsc2n1		57.7 µM		> 100 µM	> 100 µM	> 100 µM	> 100 µM	> 100 µM		20 µM	46.9 µM	71.1 µM	55.5 µM	34.1 µM	59.2 µM	> 100 µM	50.6 µM	> 100 µM	> 100 µM
Cn1ccnc1C(c1nccn1C)C(C)(C)[N+](=O)[O-]	> 100 µM	> 100 µM	> 100 µM	> 100 µM	> 100 µM	> 100 µM	> 100 µM												
O=C(Nc1ncc(Cc2ccccc2)s1)c1ccc2c(c1)OCCCO2		> 100 µM		> 100 µM	> 100 µM	4.27 µM	> 100 µM	> 100 µM		0.374 µM	0.407 µM	0.49 µM	0.838 µM	1.42 µM	2.77 µM	> 100 µM	0.547 µM	> 100 µM	1.78 µM
CCN(CC)c1ccc(N=C2C=C(C(=O)Nc3ccc(S(C)(=O)=O)cc3)C(=O)c3ccccc32)c(C)c1		> 100 µM		> 100 µM	> 100 µM	> 100 µM	> 100 µM	> 100 µM		88.5 µM	35 µM	1.07 µM	> 100 µM	67.5 µM	4.53 µM	> 100 µM	94 µM	> 100 µM	> 100 µM
O=C(Nc1ccc(Cl)cc1)c1cc2c(cc1O)[nH]c1ccccc12		10.4 µM		10.2 µM	20.6 µM	6.04 µM	15.5 µM	12.9 µM		2.85 µM	3.11 µM	2.34 µM	4.41 µM	2.86 µM	2.24 µM	6.94 µM	2.87 µM	8.93 µM	5.14 µM
CSc1ccc(-c2cc(-c3ccc(NC(=O)CCCN4CCCC4)cc3)nc(-c3ccc(NC(=O)CCCN4CCCC4)cc3)c2)cc1		17.4 µM		3.28 µM	5.93 µM	7.54 µM	20.7 µM	37.8 µM		4.23 µM	1.81 µM	2.52 µM	3.83 µM	15.5 µM	1.85 µM	3.69 µM	12.4 µM	31.3 µM	2.23 µM

Compound	TGI (DLD-1 colon)	TGI (M14 melanoma)	TGI (M19-MEL melanoma)	TGI (NCI-H460 lung)	TGI (RXF 393 renal)	TGI (SF-539 CNS)	TGI (SK-MEL-28 melanoma)	TGI (UO-31 renal)	GI50 (DLD-1 colon)	GI50 (M14 melanoma)	GI50 (NCI-H460 lung)	GI50 (SF-539 CNS)	GI50 (SK-MEL-28 melanoma)	GI50 (UO-31 renal)	GI50 (MDA-MB-231 breast)	TGI (MDA-MB-231 breast)	GI50 (NCI/ADR-RES ovarian)	TGI (NCI/ADR-RES ovarian)	GI50 (RXF 393 renal)
CN(C)c1ccc(/C=C/C(=O)C(C)(C)C)cc1Br	43.9 µM	43.2 µM	50.9 µM	> 100 µM		71 µM	47.7 µM	> 100 µM											
CN(C)/C=C/c1nnnn1-c1ccc(Cl)cc1		44.1 µM		37.3 µM	26.8 µM	44.4 µM	> 100 µM	84.8 µM		5.21 µM	16.9 µM	16.5 µM	30.2 µM	23.5 µM	16.1 µM	> 100 µM	10.2 µM	36.3 µM	7.55 µM
O=C1CCC2CCc3cccc4oc1c2c34 (stereo unspecified)	> 100 µM	> 100 µM	> 100 µM	> 100 µM	> 100 µM	> 100 µM	> 100 µM												
NC1C2C(CC(=O)O)OCC=C3CN4CCC1(C(=O)C(=O)O)C4CC32 (stereo unspecified)		> 100 µM		> 100 µM	> 100 µM	> 100 µM	> 100 µM	> 100 µM								> 100 µM		> 100 µM	
Nc1ccc(-c2nc3ccccc3[nH]2)c(O)c1		> 100 µM		> 100 µM	> 100 µM	53.1 µM	> 100 µM	> 100 µM		30.4 µM	30.4 µM	17.3 µM	53.9 µM	43.8 µM	17 µM	47.3 µM	27.8 µM	81.1 µM	35.4 µM
CCN(CC)CCOc1ccc(Nc2ncc3cc(-c4c(Cl)cccc4Cl)c(=O)n(CCOC)c3n2)cc1		1.5 µM		4.77 µM	0.133 µM	0.821 µM	8.97 µM	0.179 µM		0.233 µM	0.562 µM	0.0557 µM	1.71 µM	0.012 µM	0.0432 µM	0.813 µM	0.415 µM	7.2 µM	0.0184 µM
CCc1ccc(-c2ccc(=O)n(-c3ccc(S(N)(=O)=O)cc3)n2)cc1		> 22.2 µM		> 21.2 µM	31.5 µM	32.1 µM	> 100 µM	> 100 µM		0.764 µM	0.97 µM	3.15 µM	6.73 µM	> 100 µM	14.6 µM	> 100 µM	0.412 µM	12.2 µM	3.89 µM
COc1ccc(Nc2ccnc(NCCNc3ccnc4cc(Cl)ccc34)n2)cc1		3.41 µM		12.8 µM	3.41 µM	3.2 µM	3.35 µM	3.7 µM		1.46 µM	2.36 µM	1.59 µM	1.65 µM	1.5 µM	2.01 µM	6.71 µM	3.9 µM	16.9 µM	1.39 µM
O=Nc1c(-c2cccc([N+](=O)[O-])c2)nc2cnccn12		42 µM		> 100 µM	> 100 µM	59.1 µM	50.3 µM	25.2 µM								26.7 µM		54.5 µM	
OCc1cccc(-c2ccc3ncc(-c4nc(NC5CC5)ncc4F)n3c2)c1		1.15 µM		0.825 µM	0.356 µM	0.454 µM	0.998 µM	1 µM		0.328 µM	0.249 µM	0.162 µM	0.29 µM	0.3 µM	0.286 µM	1.04 µM	0.321 µM	1.68 µM	0.139 µM
CCOC(=O)c1cc2c(n1Cc1cc(OC)cc(OC)c1)-c1oncc1CCC2		> 100 µM		> 100 µM	> 100 µM	0.203 µM	> 100 µM	> 100 µM		0.057 µM	0.071 µM	0.0495 µM	0.143 µM	0.392 µM	0.439 µM	> 24.5 µM	0.0603 µM		0.0987 µM
Nc1c(C(=O)c2cccc(-c3ccc[n+]([O-])c3)c2)cnn1-c1ccc(F)cc1F		> 25 µM		> 25 µM	> 25 µM	> 25 µM	> 25 µM	> 25 µM		> 25 µM	> 25 µM	> 25 µM	> 25 µM	> 25 µM	> 25 µM	> 25 µM	> 25 µM	> 25 µM	> 25 µM
O=c1[nH]cnc2c1nnn2C1OC(CO)C(O)C1O (stereo unspecified)		> 56.2 µM		> 100 µM	32.2 µM	63.8 µM	> 100 µM	> 100 µM		1.84 µM	1.11 µM	4.06 µM	16.7 µM	2.75 µM	4.49 µM	> 100 µM	0.835 µM	> 31.4 µM	1.62 µM
Cn1c(=O)c(Oc2cccc(F)c2)cc2cnc(NC3CCOCC3)nc21		> 25 µM		> 25 µM	> 25 µM	> 25 µM	> 25 µM	> 13 µM		> 25 µM	> 25 µM	> 25 µM	> 25 µM	> 8.3 µM	> 25 µM	> 25 µM	> 25 µM	> 25 µM	> 25 µM
CC1=C(C)CC2(SC1)C(=O)c1ccccc1C2=O	> 100 µM	> 100 µM	> 100 µM	> 100 µM	> 100 µM	> 100 µM		> 100 µM											
OCCCCC#Cc1ccccc1C#Cc1ccccc1F		29.6 µM		60.5 µM	25.6 µM	48.4 µM	72.9 µM	46.5 µM		14.6 µM	25.9 µM	22 µM	27.3 µM	20.7 µM	17 µM	36.6 µM	21.1 µM	46.7 µM	7.63 µM
Oc1ccc2occ3c2c1CCC3	> 100 µM	> 100 µM	> 100 µM	> 100 µM	> 100 µM	> 100 µM	> 100 µM												
COc1ccc(Nc2ncccc2/C=C/C(=O)c2cc(OC)c(OC)c(OC)c2)cc1		3.16 µM		4.25 µM	2.82 µM	5.15 µM	2.66 µM	2.33 µM		1.65 µM	2.01 µM	2.04 µM	1.37 µM	1.12 µM	1.94 µM	5.74 µM	2.23 µM	13.7 µM	1.49 µM

Reference: PubChem BioAssay (NCI)
